Measured values taken from US8012963B2, “3,4-dihydro-2H-benzo[1,4]oxazine and thiazine derivatives as CETP inhibitors” (Janssen Pharmaceutica N.V., priority 2006, dated 2011).
Several values for one entry are separate records, joined by “and”; a condition that tells them apart may be missing. Equal entries are not always repeated.

Biological target: T1, CETP (Homo sapiens, UniProt P11597)
T1 construct: from tissue; host or cells: human plasma from normal volunteers
T1 sequence (P11597 18-493): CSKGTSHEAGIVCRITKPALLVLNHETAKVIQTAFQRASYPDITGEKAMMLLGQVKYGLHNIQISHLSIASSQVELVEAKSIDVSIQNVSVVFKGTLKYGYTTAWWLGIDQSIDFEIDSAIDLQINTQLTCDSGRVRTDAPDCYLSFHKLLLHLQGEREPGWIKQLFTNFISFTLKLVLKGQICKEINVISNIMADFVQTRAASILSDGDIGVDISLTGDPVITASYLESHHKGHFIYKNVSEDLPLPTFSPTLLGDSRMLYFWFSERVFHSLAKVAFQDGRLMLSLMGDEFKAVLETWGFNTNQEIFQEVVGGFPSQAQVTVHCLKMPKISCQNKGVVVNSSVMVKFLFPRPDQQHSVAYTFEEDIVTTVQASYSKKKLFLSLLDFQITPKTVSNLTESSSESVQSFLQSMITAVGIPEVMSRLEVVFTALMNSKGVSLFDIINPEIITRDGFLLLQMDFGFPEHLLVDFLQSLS
Experiment: CETP in vitro assay ([3H]CE-HDL transfer, Amersham kit TRKQ7005; modified protocol in human plasma)
Assay type: biochemical
Conditions: multiple values = multiple measurements; for % Inhibition @ 1 μM / inhibition at 1 µM: 1 μM compound
Outline: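 Normal-volunteer human plasma was incubated ≥4 hr at 37 °C with approx. 25 μg/ml [3H]CE-HDL and compound in DMSO, with a 4 °C blank for non-specific transfer. HDL was separated by Dextralip/MgCl2 precipitation and centrifugation, then supernatant radioactivity counted. IC50 came from % control versus concentration.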

Row | SMILES | % Inhibition @ 1 μM (1 µM) | inhibition at 1 µM | IC50 | % Inhibition @ 1 μM
1 | OC(CN1c2cccc(-c3cccc(OC(F)(F)F)c3)c2OCC1c1cccc(C(F)(F)F)c1)C(F)(F)F (stereo not shown) [Compound 70, 1,1,1-Trifluoro-3-[8-(3-trifluoromethoxy-phenyl)-3-(3-trifluoromethyl-phenyl)-2,3-dihydro-benzo[1,4]oxazin-4-yl]propan-2-ol] | 37% | – | – | –
2 | OC(CN1c2cccc(-c3cccc(OC(F)(F)F)c3)c2OCC1c1cccc(C(F)(F)F)c1)C(F)(F)F (stereo not shown) [Compound 71, 1,1,1-Trifluoro-3-[8-(3-trifluoromethoxy-phenyl)-3-(3-trifluoromethyl-phenyl)-2,3-dihydro-benzo[1,4]oxazin-4-yl]-propan-2-ol] | 2% | – | – | –
3 | O[C@@H](CN1c2cccc(-c3cc(F)cc(F)c3)c2OC[C@@H]1c1cccc(OC(F)(F)C(F)F)c1)C(F)(F)F [Compound 72, 4H-1,4-Benzoxazine-4-ethanol, 8-(3,5-difluorophenyl)-2,3-dihydro-3-[3-(1,1,2,2-tetrafluoroethoxy)phenyl]-α-(trifluoromethyl)-, (3S,αS)—] | – | 100% | 0.05 µM | –
4 | O[C@H](CN1c2cccc(-c3cc(F)cc(F)c3)c2OC[C@@H]1c1cccc(OC(F)(F)C(F)F)c1)C(F)(F)F [Compound 73, 4H-1,4-Benzoxazine-4-ethanol, 8-(3,5-difluorophenyl)-2,3-dihydro-3-[3-(1,1,2,2-tetrafluoroethoxy)phenyl]-α-(trifluoromethyl)-, (3S,αR)—] | – | 76% | 0.46 µM | –
5 | O[C@@H](CN1c2cccc(-c3cc(F)c(F)c(F)c3)c2OC[C@@H]1c1cccc(OC(F)(F)C(F)F)c1)C(F)(F)F [Compound 76, 4H-1,4-Benzoxazine-4-ethanol, 2,3-dihydro-3-[3-(1,1,2,2-tetrafluoroethoxy)phenyl]-8-[3,4,5-trifluoro-phenyl]-α-(trifluoromethyl)-, (3S,αS)—] | 101% | 106% | 0.041 µM | –
6 | O[C@H](CN1c2cccc(-c3cc(F)c(F)c(F)c3)c2OC[C@@H]1c1cccc(OC(F)(F)C(F)F)c1)C(F)(F)F [Compound 77, 4H-1,4-Benzoxazine-4-ethanol, 2,3-dihydro-3-[3-(1,1,2,2-tetrafluoroethoxy)phenyl]-8-[3,4,5-trifluoro-phenyl]-α-(trifluoromethyl)-, (3S,αR)—] | 82% | 80% | 0.22 µM | –
7 | O[C@@H](CN1c2cccc(-c3cc(C(F)(F)F)cc(C(F)(F)F)c3)c2OC[C@@H]1c1cccc(OC(F)(F)C(F)F)c1)C(F)(F)F [Compound 78, 4H-1,4-Benzoxazine-4-ethanol, 2,3-dihydro-3-[3-(1,1,2,2-tetrafluoroethoxy)phenyl]-8-[3,5-bis(trifluoromethyl)phenyl]-α-(trifluoromethyl)-, (3S,αS)—] | 62% | 55% | 0.58 µM | –
8 | O[C@H](CN1c2cccc(-c3cc(C(F)(F)F)cc(C(F)(F)F)c3)c2OC[C@@H]1c1cccc(OC(F)(F)C(F)F)c1)C(F)(F)F [Compound 79, 4H-1,4-Benzoxazine-4-ethanol, 2,3-dihydro-3-[3-(1,1,2,2-tetrafluoroethoxy)phenyl]-8-[3,5-bis(trifluoromethyl)phenyl]-α-(trifluoromethyl)-, (3S,αR)—] | 40% | 43% | 5 µM | –
9 | O[C@@H](CN1c2cccc(-c3cc(F)cc(F)c3)c2OC[C@@H]1c1cccc(OC(F)(F)F)c1)C(F)(F)F [Compound 80, 4H-1,4-Benzoxazine-4-ethanol, 2,3-dihydro-3-[3-(trifluoromethoxy)phenyl]-8-[3,5-(difluoro)phenyl]-α-(trifluoromethyl)-, (3S,αS)—] | – | 100% | 0.193 µM | –
10 | O[C@@H](CN1c2cccc(-c3cc(F)c(F)c(F)c3)c2OC[C@@H]1c1cccc(OC(F)(F)F)c1)C(F)(F)F [Compound 82, 4H-1,4-Benzoxazine-4-ethanol, 2,3-dihydro-3-[3-(trifluoromethoxy)phenyl]-8-[3,4,5-(trifluoro)phenyl]-α-(trifluoromethyl)-, (3S,αS)—] | 96% | 91% | 0.094 µM | –
11 | O[C@H](CN1c2cccc(-c3cc(F)c(F)c(F)c3)c2OC[C@@H]1c1cccc(OC(F)(F)F)c1)C(F)(F)F [Compound 83, 4H-1,4-Benzoxazine-4-ethanol, 2,3-dihydro-3-[3-(trifluoromethoxy)phenyl]-8-[3,4,5-(trifluoro)phenyl]-α-(trifluoromethyl)-, (3S,αR)—] | – | 29% | – | –
12 | CC(C)C(O)CN1c2cccc(-c3cccc(OC(F)(F)F)c3)c2OCC1c1cccc(OC(F)(F)C(F)F)c1 (stereo not shown) [Compound 84, 3-Methyl-1-[3-[3-(1,1,2,2-tetrafluoro-ethoxy)-phenyl]-8-(3-trifluoromethoxy-phenyl)-2,3-dihydro-benzo[1,4]oxazin-4-yl]-butan-2-ol] | 87% | 84% | 0.1 µM and 0.158 µM | –
13 | Cc1ccsc1C1COc2c(-c3cccc(OC(F)(F)F)c3)cccc2N1CC(O)C(F)(F)F (stereo not shown) [Compound 85, 1,1,1-Trifluoro-3-[3-(3-methyl-thiophen-2-yl)-8-(3-trifluoromethoxy-phenyl)-2,3-dihydro-benzo[1,4]oxazin-4-yl]-propan-2-ol] | 20% | – | – | –
14 | Cc1ccsc1C1COc2c(-c3cccc(OC(F)(F)F)c3)cccc2N1CC(O)C(F)(F)F (stereo not shown) [Compound 86, 1,1,1-Trifluoro-3-[3-(3-methyl-thiophen-2-yl)-8-(3-trifluoromethoxy-phenyl)-2,3-dihydro-benzo[1,4]oxazin-4-yl]-propan-2-ol] | 2% | – | – | –
15 | CCc1ccsc1C1COc2c(-c3cccc(OC(F)(F)F)c3)cccc2N1CC(O)C(F)(F)F (stereo not shown) [Compound 87, 3-[3-(3-Ethyl-thiophen-2-yl)-8-(3-trifluoromethoxy-phenyl)-2,3-dihydro-benzo[1,4]oxazin-4-yl]-1,1,1-trifluoro-propan-2-ol] | – | 8% | – | –
16 | CCc1ccsc1C1COc2c(-c3cccc(OC(F)(F)F)c3)cccc2N1CC(O)C(F)(F)F (stereo not shown) [Compound 88, 3-[3-(3-Ethyl-thiophen-2-yl)-8-(3-trifluoromethoxy-phenyl)-2,3-dihydro-benzo[1,4]oxazin-4-yl]-1,1,1-trifluoro-propan-2-ol] | 12% | – | – | –
17 | OC(CN1c2cccc(-c3cccc(OC(F)(F)F)c3)c2OCC1c1ccco1)C(F)(F)F (stereo not shown) [Compound 89, 1,1,1-Trifluoro-3-[3-furan-2-yl-8-(3-trifluoromethoxy-phenyl)-2,3-dihydro-benzo[1,4]oxazin-4-yl]-propan-2-ol] | – | 17% | – | –
18 | OC(CN1c2cccc(-c3cccc(OC(F)(F)F)c3)c2OCC1c1ccco1)C(F)(F)F (stereo not shown) [Compound 90, 1,1,1-Trifluoro-3-[3-furan-2-yl-8-(3-trifluoromethoxy-phenyl)-2,3-dihydro-benzo[1,4]oxazin-4-yl]-propan-2-ol] | – | – | – | 17%
19 | OC(CN1c2cccc(-c3cccc(OC(F)(F)F)c3)c2OCC1c1ccccc1OC(F)(F)C(F)F)C(F)(F)F (stereo not shown) [Compound 91, 1,1,1-Trifluoro-3-[3-[2-(1,1,2,2-tetrafluoro-ethoxy)-phenyl]-8-(3-trifluoromethoxy-phenyl)-2,3-dihydro-benzo[1,4]oxazin-4-yl]-propan-2-ol] | 6% | – | – | –
